Measured values taken from the METLIN SMRT retention time set (Domingo-Almenara et al. 2019).

Experiment: gradient 5% acetonitrile 3 min, to 50% in 2 min, to 85% in 15 min, held 3 min, 100 µL/min
Conditions: column: Zorbax Extend-C18 2.1 x 50 mm; eluents: water / acetonitrile, 0.1% formic acid
Summary of the method: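 The mobile phases were water and acetonitrile, each with 0.1% formic acid, pumped at 100 μL/min through a Zorbax Extend-C18 column (2.1 × 50 mm, 1.8 μm). Pure standards were injected as mixtures of ~100 molecules and detected by a quadrupole time-of-flight mass spectrometer in positive and negative ionization mode. Retention time came from computationally picked adduct peaks, each inspected by hand.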

| Compound | RP-LC retention time [s] |
| --- | --- |
| CN(C1=NC(=O)/C(=C/c2cc(Cl)ccc2OCC(=O)O)S1)c1ccc(O)cc1 | 669 |
| CCOC(=O)c1c(S(=O)(=O)N2CCC(C(=O)Nc3ccccc3)CC2)c(C)n(CC)c1C | 795 |
| COc1ccc(-c2nc3ncc4c(=O)n(CCc5c[nH]c6ccc(F)cc56)ccc4n3n2)cc1 | 935 |
| CCc1noc(NC(C)=O)c1-c1ccc(C)c(S(=O)(=O)NCc2ccc(C)cc2)c1 | 886 |
| CNS(=O)(=O)CCCOc1cccc2c1OC(C)(C)C2 | 776 |
| CN(C)c1nc2cc(C(=O)N3CCCCC3)sc2n1-c1ccccc1 | 679 |
| Cn1ncc2c(N3CCSCC3)nc(C(=O)N3CCN(Cc4ccccc4)CC3)nc21 | 600 |
| Cc1nc(CCNS(=O)(=O)c2ccc(Cl)c(C)c2)no1 | 812 |
| O=C(Nc1ccc(Cn2cncn2)cc1)c1ccccn1 | 654 |
| CCc1cc(C2CCCN2C(=O)Nc2ccc(OC)c(OC)c2)on1 (configuration not stated) | 724 |
| Cc1ccc(Sc2nccnc2N2CCCC(C(=O)Nc3ccc(F)cc3C)C2)cc1 (configuration not stated) | 1140 |
| O=c1n(CC2CC2)nc2n1CCN(Cc1cccc(O)c1)C2 | 610 |
| O=C(Cn1cnc2c(sc3nc(-c4ccccc4)ccc32)c1=O)Nc1cccc(Br)c1 | 1110 |
| COc1ccc(CNC(=O)c2cn(C)c3ncccc23)cc1 | 711 |
| CC(C)n1c(CCNC(=O)c2cccc(Cl)c2)nc2cccnc21 | 701 |
| COCCc1noc(C2Cc3ccccc3N2C(=O)NCC(C)C)n1 (configuration not stated) | 859 |
| CNC(=O)C1CN(S(=O)(=O)c2cccs2)CC12CCCCC2 (configuration not stated) | 697 |
| CN(C)c1ccc(C(=O)NCC(C)(O)c2ccco2)cc1 (configuration not stated) | 665 |
| O=C1CC(c2nc(-c3cccc(Cl)c3)no2)CN1c1ccc2c(c1)OCO2 (configuration not stated) | 1030 |
| Cc1noc2ncnc(N3CCCC(C(=O)N4CCN(c5ccc(F)cc5)CC4)C3)c12 (configuration not stated) | 846 |
| COc1ccc(NC(=O)N2CCC(CC(=O)N3CCCCC3)CC2)cc1 | 706 |
| Cc1ccc(S(=O)(=O)N(C)CCCC(=O)N2CCN(c3ccccn3)CC2)cc1 | 576 |
| CCN1CCCC1CNC(=O)CC1CCN(S(=O)(=O)c2ccc3c(c2)CCN3C(C)=O)CC1 (configuration not stated) | 597 |

| Compound | RP-LC retention time [s] |
| --- | --- |
| CCN1CCN(c2cc(C)c3cc(NC(=O)CCC4CCCC4)ccc3n2)CC1 | 620 |
| CCCCNC(=O)CCc1c(C)n(C)c2nc(-c3ccccc3)nn2c1=O | 706 |
| O=C(NCc1ccncc1)c1csc(-c2ccc(N3CCCC3)nc2)n1 | 559 |
| Cc1ccc(NC(=O)N2CCCC2c2cc(C)on2)c(Cl)c1 (configuration not stated) | 897 |
| CCOC(=O)c1[nH]c(C)c(C(=O)N2CCC(CC(=O)NC3CCCC3)CC2)c1C | 696 |
| CCN(CC)c1nc2cc(C(=O)N3CCN(c4ccccn4)CC3)ccc2c(=O)n1-c1ccccc1 | 693 |
| Cc1ccccc1CN1CC(=O)N(c2ccccc2)[C@@H]2CS(=O)(=O)C[C@@H]21 | 800 |
| O=C(CCC(=O)N1CC2CCCN2c2ccccc21)NCc1ccc2c(c1)OCO2 (configuration not stated) | 855 |
| COc1ccc(-c2cc(C(=O)Nc3ccc4c(c3)CCC(=O)N4)c3ccccc3n2)cc1 | 822 |
| CC1(C(=O)NCc2ccccc2)CN(S(=O)(=O)c2ccccc2)CC(=O)N1C1CCCCCC1 (configuration not stated) | 1060 |
| O=C1CCc2cc(S(=O)(=O)NCc3ccccc3Cl)cc3c2N1CCC3 | 863 |
| O=C1NCCCn2cc(S(=O)(=O)Nc3ccccc3F)cc21 | 633 |
| COc1ccc(-c2nc(NC(C)C)c3ccccc3n2)cc1 | 743 |
| Cc1c(Cl)cccc1NC(=O)N1CCc2nc(-c3ccc(F)cc3)ncc2C1 | 996 |
| Cc1n[nH]c(C)c1S(=O)(=O)N1CCN(c2ccc3nnc(C4CC4)n3n2)CC1 | 604 |
| Cc1cc(C)cc(-n2c(SCC(=O)Nc3nc(C)cs3)nc3c(c2=O)SCC3)c1 | 825 |
| COc1cc(NC(=O)N2CCCC2c2nc(-c3ccccc3OC)no2)cc(OC)c1 (configuration not stated) | 849 |
| CCCc1nc(C(C)(C)O)c(C(=O)O)n1Cc1ccc(-c2ccccc2-c2nn[nH]n2)cc1 | 687 |
| CCN(CC)C(=O)CN1C(=O)COc2ccc(C(=O)N3CCCCC3)cc21 | 695 |
| COc1ccc(F)cc1-c1cc(N2CCN(C(=O)NCC(C)C)CC2)ncn1 | 645 |
| O=C(CN1CCN(Cc2ccc(F)cc2Cl)C1=O)N1CCN(c2ccccc2)CC1 | 881 |
| O=C(c1cc2ccccc2[nH]1)N1CCN(c2ccc(=O)n(-c3cccc(Cl)c3)n2)CC1 | 926 |
| O=C(NCc1ccco1)c1csc(-c2ccc(N3CCCCC3)nc2)n1 | 819 |

More lines, now with the values ahead:

| RP-LC retention time [s] | Compound |
| --- | --- |
| 927 | Cc1nc(C2(C)CCN(S(=O)(=O)c3ccc(F)c(C)c3)CC2)no1 |
| 1050 | CCc1cc(-c2csc(S(=O)(=O)NCCc3ccc(Cl)cc3)c2)on1 |
| 913 | COc1ccc(NC(=O)c2cnc3c(c2)c(=O)n(C)c(=O)n3-c2ccc(C)cc2)c(OC)c1 |
| 599 | CC1CCCN(CCCNC(=O)C(=O)Nc2ccc3nc4n(c(=O)c3c2)CCCCC4)C1 (configuration not stated) |
| 815 | CCOc1cc(=O)n2c(c1C(=O)Nc1ccc3c(c1)CCC3)CCCC2 |
| 1080 | Cc1cc(C)cc(NS(=O)(=O)c2cc(-c3nc(C)cs3)sc2C)c1 |
| 606 | Cc1ccc2c(Nc3cccc(Cl)c3)c(C(=O)N3CCOCC3)cnc2n1 |
| 796 | CSc1ccccc1C(=O)NCc1cc(-c2cccs2)on1 |
| 613 | COc1cc(C(=O)N2CCN(c3cc(C(C)C)n4cnnc4n3)CC2)cc(OC)c1OC |
| 811 | COCCNC(=O)C1CN(S(=O)(=O)c2ccccc2)CC12CCCCC2 (configuration not stated) |
| 966 | Cc1nc(-c2ccccc2)cc2nn(CC(=O)Nc3ccccc3Cl)c(=O)n12 |
| 658 | CCOC(=O)c1ccc(NC(=O)N2CCN(c3nc4ccccc4n3C)CC2)cc1 |
| 575 | CC(=O)N1C[C@@H]2CCCN3CCC[C@@H]([C@H]23)[C@H]1CCCC(=O)NCCCc1c(C)noc1C |
| 709 | CC(C)NC(=O)C1CCCN(c2nc3ncn(CC(=O)Nc4ccc5c(c4)CCC5)c(=O)c3s2)C1 (configuration not stated) |
| 865 | CCc1noc(-c2ccc(-n3cnc(C(=O)NC4CCCC4)c3)nc2)n1 |
| 751 | O=C(Nc1cccc(C(F)(F)F)c1)N1CCCC(Cn2cnc3cccnc32)C1 (configuration not stated) |
| 771 | O=C(CN1C(=O)NC(c2ccc(Cl)cc2)C2=C1COC2=O)NCc1ccc(F)cc1 (configuration not stated) |
| 856 | CC(C)n1ncc(NC(=O)Cc2ccc(Cl)cc2)c(N2CCOCC2)c1=O |
| 852 | Cc1ccc(NC(=O)C2CCCN(S(=O)(=O)c3c[nH]c(C(=O)N4CCCC4)c3)C2)cc1Cl (configuration not stated) |
| 805 | CC1=C(c2ccc(C)cc2)S(=O)(=O)N=C1N1CCC(NC(=O)C2CCC2)CC1 |
| 750 | CCN(CC)c1ccc(NS(=O)(=O)c2cc(-c3nc(C)cs3)sc2C)c(C)c1 |

| RP-LC retention time [s] | Compound |
| --- | --- |
| 674 | Cc1nncn1C1CCN(S(=O)(=O)c2ccc(C(C)C)cc2)CC1 |
| 1160 | CCc1ccc(S(=O)(=O)N2CCc3nc(-c4ccccc4)ncc3C2)cc1 |
| 864 | CCc1ccccc1NC(=O)N1CCCC(C)(C(=O)NCc2ccc(F)cc2)C1 (configuration not stated) |
| 752 | CCn1cnc(S(=O)(=O)N2CCCC(C(=O)N3CCN(c4ccc(F)cc4)CC3)C2)c1 (configuration not stated) |
| 726 | COc1ccc(-c2nc(N3CCC4(CC3)OCCO4)c3ccccc3n2)cc1 |
| 724 | COCc1nnc(NC(=O)C2CC(=O)N(CCc3c[nH]c4ccc(Cl)cc34)C2)s1 (configuration not stated) |
| 911 | Cc1nc2nc(-c3ccc(C(C)(C)C)cc3)nn2c(C)c1CC(=O)NC(C)C |
| 658 | CCCNC(=O)C1CCN(S(=O)(=O)c2cc(C(=O)N(C)C)cs2)CC1 |
| 865 | Cn1cc(C(=O)NCc2ccccc2F)c(S(=O)(=O)N2CCSCC2)n1 |
| 966 | COc1ccc(-c2csc(Nc3ccc(S(=O)(=O)Nc4nc(C)cc(C)n4)cc3)n2)cc1C |
| 817 | COc1ncc(C(=O)Nc2cc(C)cc(C)c2)c(C)n1 |
| 556 | Cc1cc(N2CCN(C)CC2)nc2ccc(NC(=O)NCc3ccc(F)cc3)cc12 |
| 979 | COc1ccc(-c2nnc(-c3ccc(OC)c(S(=O)(=O)N4CCCCCC4)c3)o2)cc1OC |
| 776 | O=C(NCc1ccc(F)cc1F)C1CCN(C(=O)c2ncn3c2COC(c2ccc(F)cc2)C3)CC1 (configuration not stated) |
| 911 | Cc1cc(C)cc(C(=O)Nc2cc(-c3ccccn3)no2)c1 |
| 578 | CCOC(=O)c1c(C)[nH]c(C(=O)N2CCCC(C(=O)NCCN3CCCCCC3)C2)c1C (configuration not stated) |
| 765 | CC(C)n1cnc(S(=O)(=O)N2CCC(C(=O)N3CCc4ccccc4C3)CC2)c1 |
| 1070 | CCOC(=O)c1nc(N2CCN(c3cccc(C(F)(F)F)c3)CC2)c2ccccc2n1 |
| 597 | Cc1nn(C)cc1CN(C)C(=O)CCC1CCCN(c2cc(NC3CC3)ncn2)C1 (configuration not stated) |
| 749 | CCCS(=O)(=O)N1CCCC(c2nnc(-c3cccs3)o2)C1 (configuration not stated) |
